Test results: US20090176839A1, “FORMULATIONS OF 3-(6-(1-(2,2-DIFLUOROBENZO[D][1,3]DIOXOL-5-YL) CYCLOPROPANECARBOXAMIDO)-3-METHYLPYRIDIN-2-YL)BENZOIC ACID” (priority 2007, published 2009)
“And” between values parts separate entries of the source, which are not always exact repeats. Equal values may be shown once.

Key:
[1] = Single oral pharmacokinetics of the HCl salt in suspension in fed and fasted male rats; type: in vivo, male Sprague Dawley rats; details: 30 mg/kg; for AUC0-INF: HCl salt suspension; for Clast / F / Tmax / t1/2 / tlast: HCl salt
Method: (§1) Non-validated research grade assays were used for these analyses. All pharmacokinetic studies were conducted using fed animals unless otherwise specified.
The tmax following oral administration of the HCl salt was 3.7 hours under fed and 3.3 hours under fasted conditions, which was similar to the tmax of 3.0 to 4.7 hours following oral administration of Compound 1 under fed conditions.

[2] = Single oral pharmacokinetics of the HCl salt in suspension in male dogs; type: in vivo, male beagle dogs; details: for AUC0-INF / Cmax: mean (SD)
Method: as §1
At nominal dose levels of 5 to 200 mg/kg in 0.5% polysorbate 80/0.5% methylcellulose/water, exposure was high and relatively dose proportional to 200 mg/kg (Table 5). […] Bioavailability ranged from 24% to 49% at all dose levels studied and in both suspension formulations.

[3] = Stability of 6 mg/mL aqueous methylcellulose-polysorbate 80 suspension (HPLC, XRPD, NMR); type: physicochemical; details: 0.5% methylcellulose/0.5% polysorbate 80; HCl salt quickly converted to Compound 1 at T(0)
Method: Methylcellulose (0.5 g) was combined with 99.0 g of purified water in a beaker and stirred in a 60-70° C. water bath for 30′-1 hr. The solution was stirred in a 0° C. ice/water bath for another 30′ or until clear. Polysorbate 80 (0.5 g) was added and stirring at room temperature followed for 30′-1 hr or until a clear solution was obtained.
The desired amount of 0.5% methylcellulose and 0.5% polysorbate 80 stock solution for making a 6 mg/mL based on free base (6.48 mg/mL based on HCl salt) was transferred into the vial and sonicated for 20 minutes with alternate stirring for 1-2 minutes. The solution was homogenized for approximately 1-2 minutes.
As with 0.5% methylcellulose formulation prepared previously, the HCl salt was quickly converted to Compound 1 in Form I at T(0) resulting in a crystalline free form suspension as shown by XRPD (FIG. 10) and confirmed by ^1H NMR analysis (FIGS. 11-13). Additionally, the solid form in suspension at T(0) was recovered an subjected to HPLC analysis: […]

[4] = Solubility (statement); type: physicochemical; details: water
[5] = Oral pharmacokinetics of Compound 1 and HCl salt in suspension in male dogs at 200 mg/kg
[6] = 0.5% polysorbate 80/0.5% MC/Water, 5 mg/kg
[7] = 0.5% polysorbate 80/0.5% MC/Water, 25 mg/kg
[8] = 0.5% polysorbate 80/0.5% MC/Water, 50 mg/kg
[9] = 0.5% polysorbate 80/0.5% MC/Water, 100 mg/kg
[10] = 0.5% polysorbate 80/0.5% MC/Water, 200 mg/kg

## Cc1ccc(NC(=O)C2(c3ccc4c(c3)OC(F)(F)O4)CC2)nc1-c1cccc(C(=O)O)c1.Cl [HCl salt, 3-(6-(1-(2,2-difluorobenzo[d][1,3]dioxol-5-yl)cyclopropanecarboxamido)-3-methylpyridin-2-yl)benzoic acid.HCl]
[1]; Fasted
  AUC0-INF: 383 µg·h/mL
  Clast: 60 ng/mL
  F: >100%
  Tmax: 3.3 h and 3.33 h
  t1/2: 5.36 h
  tlast: 48 h
[1]; Fed
  AUC0-INF: 340 µg·h/mL
  Clast: 240 ng/mL
  F: >100%
  Tmax: 3.7 h and 3.67 h
  t1/2: 6.07 h
  tlast: 48 h
[2]; 0.5% MC/Water, 1 mg/kg
  F: 35%
  T1/2: 6.0 h
  Tmax: 0.83 h
  AUC0-INF: 2.2 (0.5) hr · μg/mL
  Cmax: 0.37 (0.2) μg/mL
[2]; 0.5% MC/Water, 3 mg/kg
  F: 49%
  T1/2: 5.3 h
  Tmax: 1.7 h
  AUC0-INF: 9.3 (4.8) hr · μg/mL
  Cmax: 1.1 (0.5) μg/mL
[2]; 0.5% MC/Water, 10 mg/kg
  F: 40%
  T1/2: 8.8 h
  Tmax: 1.0 h
  AUC0-INF: 28.4 (12.8) hr · μg/mL
  Cmax: 8.9 (7.2) μg/mL
[2]; [6]
  F: 24%
  T1/2: 7.0 h
  Tmax: 1.0 h
  AUC0-INF: 11.0 (3.6) hr · μg/mL
  Cmax: 3.0 (0.5) μg/mL
[2]; [7]
  F: 41%
  T1/2: 5.9 h
  Tmax: 2.0 h
  AUC0-INF: 56.8 (22.1) hr · μg/mL
  Cmax: 18.0 (3.7) μg/mL
[2]; [8]
  F: 27%
  T1/2: 4.9 h
  Tmax: 1.7 h
  AUC0-INF: 63.4 (22.9) hr · μg/mL
  Cmax: 21.0 (7.1) μg/mL
[2]; [9]
  F: 46%
  T1/2: 5.4 h
  Tmax: 1.7 h
  AUC0-INF: 268 (123) hr · μg/mL
  Cmax: 54.4 (6.8) μg/mL
[2]; [10]
  F: 30%
  T1/2: 5.9 h
  Tmax: 2.3 h
  AUC0-INF: 523 (46.8) hr · μg/mL
  Cmax: 101 (30.2) μg/mL
[3]
  physical stability of suspension: not physically stable
[4]
  solubility in water: sparingly soluble
[5]; HCl salt
  Clast: 128 ng/mL
  F: 53%
  Tmax: 2.5 h
  t1/2: 5.5 h
  tlast: 48 h
[5]; HCl salt suspension
  AUC0-INF: 755 µg·h/mL
